Reference: PubChem BioAssay (NCI)
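All cell lines were grown in 96-well plates and treated with compound for 48 hours. GI50 = concentration required for 50% inhibition of growth. TGI marks complete inhibition of growth.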

Experiments:
Experiment in all cases: NCI tumour cell line growth inhibition, 48 h
[1] = tested on: A498 renal
[2] = tested on: BT-549 breast
[3] = tested on: LOX IMVI melanoma
[4] = tested on: MCF7 breast
[5] = tested on: MDA-MB-435
[6] = tested on: NCI-H23 lung
[7] = tested on: NCI/ADR-RES ovarian
[8] = tested on: RPMI-8226 leukemia
[9] = tested on: UACC-257 melanoma
[10] = tested on: UO-31 renal

Compound: Oc1cc(O)c2c(=S)cc(-c3ccc(Cl)cc3)oc2c1
- GI50 [1]: 1.22 µM
- TGI [1]: 11.7 µM
- GI50 [2]: 3.38 µM
- TGI [2]: 12.6 µM
- GI50 [3]: 2.92 µM
- TGI [3]: 11.6 µM
- GI50 [4]: 0.111 µM
- TGI [4]: 11.4 µM
- GI50 [5]: 3.41 µM
- TGI [5]: 14 µM
- GI50 [6]: 2.06 µM
- TGI [6]: 8.8 µM
- GI50 [7]: 2.8 µM
- TGI [7]: 10.7 µM
- GI50 [8]: 2.82 µM
- TGI [8]: 9.9 µM
- GI50 [9]: 2.75 µM
- TGI [9]: 7.96 µM
- GI50 [10]: 1.21 µM
- TGI [10]: 8.58 µM

Compound: COC(=O)c1ccc([N+](=O)[O-])c(O)c1
- TGI [1]: > 100 µM
- TGI [2]: > 100 µM
- TGI [3]: > 100 µM
- TGI [4]: > 100 µM
- TGI [5]: > 100 µM
- TGI [6]: > 100 µM
- TGI [7]: > 100 µM
- TGI [8]: > 100 µM
- TGI [9]: > 100 µM
- TGI [10]: > 100 µM

Compound: COc1cccc(NC(=O)CC(=O)N2NC(C)C(N=Nc3cccc(C(=O)O)c3)C2=O)c1 (stereo unspecified)
- TGI [1]: > 100 µM
- TGI [3]: > 100 µM
- TGI [6]: > 100 µM
- TGI [8]: > 100 µM
- TGI [9]: > 100 µM
- TGI [10]: > 100 µM

Compound: CC(=O)OC1CCC2(C)C(=CCC3C2CCC2(C)C(C(C)C(=O)O)CCC32)C1 (stereo unspecified)
- TGI [1]: > 100 µM
- TGI [2]: > 100 µM
- TGI [3]: > 100 µM
- TGI [4]: > 100 µM
- TGI [5]: > 100 µM
- TGI [6]: > 100 µM
- TGI [7]: > 100 µM
- TGI [8]: > 100 µM
- TGI [9]: > 100 µM
- TGI [10]: > 100 µM

Compound: O=S1(=O)CS(=O)(=O)OCCCO1
- TGI [1]: > 100 µM
- TGI [3]: > 100 µM
- TGI [4]: > 100 µM
- TGI [5]: > 100 µM
- TGI [6]: > 100 µM
- TGI [7]: > 100 µM
- TGI [8]: > 100 µM
- TGI [9]: > 100 µM
- TGI [10]: > 100 µM

Compound: CC(=O)OCC1OC(OC2=C(CC=C(Cl)Cl)C(=O)c3ccccc3C2=O)C(OC(C)=O)C(OC(C)=O)C1OC(C)=O (stereo unspecified)
- GI50 [1]: 3.32 µM
- TGI [1]: 20 µM
- GI50 [2]: 7.03 µM
- TGI [2]: 20.4 µM
- GI50 [3]: 1.71 µM
- TGI [3]: 3.56 µM
- GI50 [5]: 4.38 µM
- TGI [5]: 16 µM
- GI50 [6]: 13.2 µM
- TGI [6]: 36.8 µM
- GI50 [7]: 4.23 µM
- TGI [7]: 51.9 µM
- GI50 [8]: 2.05 µM
- TGI [8]: 6.78 µM
- GI50 [9]: 8.45 µM
- TGI [9]: 21.4 µM
- GI50 [10]: 1.44 µM
- TGI [10]: 3.37 µM

Compound: N#CCC(=O)N/N=C1\C(=O)N(c2ccc(Cl)cc2)C(=O)C(=O)C1c1nc2ccccc2o1 (stereo unspecified)
- TGI [1]: > 100 µM
- TGI [6]: > 100 µM
- TGI [9]: > 100 µM
- TGI [10]: > 100 µM

Compound: C[C@H]1CC(=O)C2=CCCC3(SCCCS3)[C@@H]2[C@H]1CO
- TGI [1]: > 100 µM
- TGI [3]: > 100 µM
- TGI [6]: > 100 µM
- TGI [8]: > 100 µM
- TGI [9]: > 100 µM
- TGI [10]: > 100 µM

Compound: COc1cc2cc[n+]3c4cc(OC)c(OC)cc4c(C)cc3c2cc1OC
- TGI [3]: > 100 µM
- TGI [6]: > 100 µM
- TGI [8]: > 100 µM
- TGI [9]: > 100 µM
- TGI [10]: > 100 µM

Compound: O=c1c2cc(Br)cc(Br)c2[nH]c(=S)n1-c1ccccc1
- TGI [1]: > 100 µM
- TGI [3]: > 100 µM
- TGI [6]: > 100 µM
- TGI [8]: > 100 µM
- TGI [9]: > 100 µM
- TGI [10]: > 100 µM

Compound: CN(C)CCN=Cc1c2ccccc2c(=O)n2c1oc1ccccc12
- GI50 [2]: 7.61 µM
- TGI [2]: 21.1 µM
- GI50 [3]: 4.18 µM
- TGI [3]: 16.1 µM
- GI50 [5]: 10.1 µM
- TGI [5]: 21.7 µM
- GI50 [6]: 10.5 µM
- TGI [6]: 23 µM
- GI50 [7]: 13.7 µM
- TGI [7]: 32.6 µM
- GI50 [8]: 11.3 µM
- TGI [8]: > 100 µM
- GI50 [9]: 14.2 µM
- TGI [9]: 30.5 µM
- GI50 [10]: 6.67 µM
- TGI [10]: 28.6 µM

Compound: O=c1c2ccccc2c(=O)c2c1cc(Cl)c1[nH]c3c([nH]c12)c(Cl)cc1c(=O)c2ccccc2c(=O)c13
- TGI [1]: > 100 µM
- TGI [6]: > 100 µM
- TGI [8]: > 100 µM
- TGI [9]: > 100 µM
- TGI [10]: > 100 µM

Compound: C/C(=N/NC(=O)C(N)=O)C(CC(C(=O)Nc1ccccc1C)/C(C)=N\NC(=O)C(N)=O)C(=O)Nc1ccccc1C (stereo unspecified)
- TGI [1]: > 100 µM
- TGI [3]: > 100 µM
- TGI [6]: > 100 µM
- TGI [8]: > 100 µM
- TGI [9]: > 100 µM
- TGI [10]: > 100 µM

Compound: O=C(O)CCC1(Br)CCCCC(Br)C1=O (stereo unspecified)
- TGI [1]: > 100 µM
- TGI [6]: > 100 µM
- TGI [8]: > 100 µM
- TGI [9]: > 100 µM

Compound: C=C1Oc2nc3ccccc3c(=O)n2C1(C)C
- TGI [1]: > 100 µM
- TGI [3]: > 100 µM
- TGI [6]: > 100 µM
- TGI [8]: > 100 µM
- TGI [9]: > 100 µM
- TGI [10]: > 100 µM

Compound: CC1=C([Se]CC(OC(=O)[C@@H](CO)NC(=O)OC(C)(C)C)C(=O)NC(C)(C)C)C(=O)c2ccccc2C1=O (stereo partly specified)
- GI50 [1]: 3.64 µM
- TGI [1]: 15.2 µM
- GI50 [2]: 1.59 µM
- TGI [2]: 2.93 µM
- GI50 [3]: 1.6 µM
- TGI [3]: 3.02 µM
- GI50 [4]: 1.75 µM
- TGI [4]: 3.97 µM
- GI50 [5]: 2.01 µM
- TGI [5]: 4.1 µM
- GI50 [6]: 1.49 µM
- TGI [6]: 3.2 µM
- GI50 [8]: 2.74 µM
- TGI [8]: 8.91 µM
- GI50 [9]: 1.74 µM
- TGI [9]: 3.23 µM
- GI50 [10]: 1.45 µM
- TGI [10]: 2.94 µM

Compound: CC(=O)OC1C(CCl)OC(N=[N+]=[N-])C(OC(C)=O)C1OC(C)=O (stereo unspecified)
- TGI [1]: > 100 µM
- TGI [6]: > 100 µM
- TGI [8]: > 100 µM
- TGI [9]: > 100 µM
- TGI [10]: > 100 µM

Compound: CC[O-].Cc1ccc2cccc([O-])c2n1.Cc1ccc2cccc([O-])c2n1.Cc1ccc2cccc([O-])c2n1.[Ti+4]
- GI50 [1]: > 63.2 µM
- TGI [1]: > 100 µM
- GI50 [3]: 18.2 µM
- TGI [3]: 47.9 µM
- GI50 [6]: > 63.5 µM
- TGI [6]: > 100 µM
- GI50 [8]: 11.5 µM
- TGI [8]: 49.5 µM
- GI50 [9]: 18.6 µM
- TGI [9]: > 85 µM
- GI50 [10]: > 100 µM
- TGI [10]: > 100 µM

Compound: N#Cc1cccc(NC(=O)c2oc3ccccc3c2-c2cnn(-c3ccccc3)c2)c1
- GI50 [2]: 167 µM
- TGI [2]: > 500 µM
- GI50 [3]: 308 µM
- TGI [3]: > 500 µM
- GI50 [4]: 209 µM
- TGI [4]: > 500 µM
- GI50 [5]: > 500 µM
- TGI [5]: > 500 µM
- GI50 [6]: > 500 µM
- TGI [6]: > 500 µM
- GI50 [7]: > 500 µM
- TGI [7]: > 500 µM
- GI50 [8]: > 500 µM
- TGI [8]: > 500 µM
- GI50 [9]: > 500 µM
- TGI [9]: > 500 µM
- GI50 [10]: 41.2 µM
- TGI [10]: > 500 µM

Compound: COC(=O)[C@@]1(C)CC[C@]2(C)CC[C@]3(C)C4=CC=C5C(=CC(=O)C(O)=C5C)[C@]4(C)CC[C@@]3(C)[C@@H]2C1
- GI50 [1]: 0.333 µM
- TGI [1]: 0.938 µM
- GI50 [2]: 0.36 µM
- TGI [2]: 0.889 µM
- GI50 [3]: 0.174 µM
- TGI [3]: 0.325 µM
- GI50 [5]: 0.195 µM
- TGI [5]: 0.503 µM
- GI50 [6]: 0.235 µM
- TGI [6]: 0.637 µM
- GI50 [8]: 0.183 µM
- TGI [8]: 0.517 µM
- GI50 [9]: 0.279 µM
- TGI [9]: 0.767 µM
- GI50 [10]: 0.127 µM
- TGI [10]: 0.261 µM

Compound: O=C(Nc1ccccc1Br)c1cccc([N+](=O)[O-])c1O
- TGI [1]: 9.05 µM
- TGI [3]: 10.7 µM
- TGI [6]: 6.31 µM
- TGI [8]: 6.27 µM
- TGI [9]: 10.1 µM
- TGI [10]: 5.73 µM
